Tested on: 885724-159-R-J1-PDC KRAS PDC multicell spheroid viability
Experiment: Anticancer human tumor 885724-159-R-J1-PDC patient-derived pancreatic adenocarcinoma cell line growth inhibition [KRAS2]
Conditions: for viability, T/C: stronger effect = lower value
Text: Multicellular complex tumor spheroid response to RAS pathway inhibitors in combination with a targeted agents in patient-derived cell lines with oncogenic KRAS variants from multiple cancer types
A high-throughput screen of multi-cell type tumor spheroids was designed to identify active combinations of targeted small molecules and KRAS pathway inhibitors. Complex spheroids include a stromal component modeled by human endothelial cells (HUVEC) and fibroblasts modeled by human mesenchymal stem cells (MSCs). The concentration ranges selected for each drug and investigational agent were based upon clinically achievable concentrations if the clinical Cmax of the agent was known.
Compounds. The drugs and investigational agents: BI-3406 (NSC825286), BAY-293 (NSC824723), batoprotafib (TNO155; NSC825523), sotorasib (AMG 510; NSC818433), MRTX1257 (NSC819558), elimusertib (BAY 1895344; NSC800525), molibresib (GSK525762; NSC774829), temuterkib (LY3214996; NSC803410), venetoclax (NSC766270), alisertib (NSC759677), olaparib (NSC753686), talazoparib (NSC767125), erdafitinib (NSC781556), ipatasertib (NSC767898), cabozantinib (NSC761068), nintedanib (NSC756659), abemaciclib (NSC768073), docetaxel (NSC628503), trametinib (NSC758246), and sapanisertib (NSC764658) were obtained from the National Cancer Institute (NCI) Developmental Therapeutics Program Chemical Repository. The FDA-approved anticancer drug set is available from the Developmental Therapeutics Program. […] The stock solutions were prepared in dimethyl sulfoxide (DMSO, Sigma-Aldrich, St. Louis, MO, cat. D2650) at 800-fold the tested concentration and stored at -70 degrees C prior to their use. All drugs and investigational agents were tested over a range starting from a high concentration at or near the clinical Cmax and decreasing in half-log increments. If the clinical Cmax for an agent had not been determined, the highest concentration tested was 10 microM.
Cell Culture. All cells were maintained in an incubator at 37 degrees C and 5% CO2 with 95% humidity. The PDC lines were cultured according to standard operating procedures established by the NCI PDMR (https://pdmr.cancer.gov/sops/default.htm). Briefly, all PDCs were thawed and cultured in Matrigel-coated flasks prepared with a working solution of 1X Ham's F-12 nutrient mix, without supplementation (Invitrogen, Waltham, MA, cat. 11765054), 100 U/mL penicillin-streptomycin (Invitrogen, cat. 15140122), and 2.5% Matrigel (Corning Inc., Corning, NY, cat. 354248) for the first three passages. All PDCs were cultured in complete DMEM/F-12 media containing advanced DMEM/F-12 (Invitrogen, cat. 12634028), 4.9% defined fetal bovine serum, heat inactivated (HyClone Laboratories Inc., Logan, UT, cat. SH30070.03HI), 389 ng/mL hydrocortisone (Sigma-Aldrich, cat. H4001), 9.7 ng/mL human EGF recombinant protein (Invitrogen, cat. PHG0313), 23.4 microg/mL adenine (Sigma-Aldrich, cat. A2786), 97.3 U/mL penicillin-streptomycin (Invitrogen, cat. 15140122), 1.9 mM L-glutamine (Invitrogen, cat. 25030081), and 9.7 microM Y-27632 dihydrochloride (Tocris Bioscience, Bristol, United Kingdom, cat. 1254). The PDCs were cultured in complete DMEM/F12 media without 9.7 microM Y-27632 dihydrochloride for at least two passages prior to the screen. The established cell line HOP-62 was cultured in RPMI 1640 medium, HEPES (Invitrogen, cat. 22400105) with 10% defined fetal bovine serum (HyClone Laboratories Inc., cat. SH30070.03) and 2 mM L-glutamine (Invitrogen, cat. 25030081). The pooled donor HUVEC were cultured in endothelial cell growth medium 2 (PromoCell, Heidelberg, Germany, cat. C-22011) and the hMSC were cultured in mesenchymal stem cell growth medium 2 (PromoCell, cat. C-28009). For all experiments, HUVEC and hMSC were used at passages </=5, while the malignant cell lines were used at passages </=15. […]

[1] = curve of first compound, second compound 0.1 µM
[2] = curve of first compound, second compound 0.316 µM
[3] = curve of first compound, second compound 1 µM
[4] = curve of first compound, second compound 3.16 µM
[5] = curve of first compound, second compound 10 µM
[6] = second compound 0.1 µM, first compound 0.01 µM
[7] = second compound 0.1 µM, first compound 0.0316 µM
[8] = second compound 0.1 µM, first compound 0.1 µM
[9] = second compound 0.316 µM, first compound 0.01 µM
[10] = second compound 0.316 µM, first compound 0.0316 µM
[11] = second compound 0.316 µM, first compound 0.1 µM
[12] = second compound 1 µM, first compound 0.01 µM
[13] = second compound 1 µM, first compound 0.0316 µM
[14] = second compound 1 µM, first compound 0.1 µM
[15] = second compound 3.16 µM, first compound 0.01 µM
[16] = second compound 3.16 µM, first compound 0.0316 µM
[17] = second compound 3.16 µM, first compound 0.1 µM
[18] = second compound 10 µM, first compound 0.0316 µM
[19] = second compound 10 µM, first compound 0.1 µM
[20] = second compound 0.1 µM, first compound 0.316 µM
[21] = second compound 0.1 µM, first compound 1 µM
[22] = second compound 0.1 µM, first compound 3.16 µM
[23] = second compound 0.316 µM, first compound 0.316 µM
[24] = second compound 0.316 µM, first compound 1 µM
[25] = second compound 0.316 µM, first compound 3.16 µM
[26] = second compound 1 µM, first compound 0.316 µM
[27] = second compound 1 µM, first compound 1 µM
[28] = second compound 1 µM, first compound 3.16 µM
[29] = second compound 3.16 µM, first compound 0.316 µM
[30] = second compound 3.16 µM, first compound 1 µM
[31] = second compound 3.16 µM, first compound 3.16 µM
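Also: spheroids exposed to agents for 7 days before readout.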

Compound: CC(C)n1nc(-c2ccc3oc(N)nc3c2)c2c(N)ncnc21 + CNCc1ccccc1-c1csc(C(C)Nc2nc(C)nc3cc(OC)c(OC)cc23)c1
- IC50 [1]: > 100 nM
- IC50 [2]: 42 nM
- IC50 [3]: 58.3 nM
- IC50 [4]: < 0.316 nM
- IC50 [5]: < 0.316 nM
- viability, T/C (second compound 0.1 µM, first compound 0.000316 µM): 87%
- viability, T/C (second compound 0.1 µM, first compound 0.001 µM): 81.1%
- viability, T/C (second compound 0.1 µM, first compound 0.00316 µM): 73.6%
- viability, T/C [6]: 65%
- viability, T/C [7]: 54.6%
- viability, T/C [8]: 52.4%
- viability, T/C (second compound 0.316 µM, first compound 0.000316 µM): 100%
- viability, T/C (second compound 0.316 µM, first compound 0.001 µM): 75.3%
- viability, T/C (second compound 0.316 µM, first compound 0.00316 µM): 70.7%
- viability, T/C [9]: 60.6%
- viability, T/C [10]: 50.2%
- viability, T/C [11]: 45.6%
- viability, T/C (second compound 1 µM, first compound 0.000316 µM): 85.8%
- viability, T/C (second compound 1 µM, first compound 0.001 µM): 76.2%
- viability, T/C (second compound 1 µM, first compound 0.00316 µM): 69.2%
- viability, T/C [12]: 60.6%
- viability, T/C [13]: 50.2%
- viability, T/C [14]: 48.5%
- viability, T/C (second compound 3.16 µM, first compound 0.000316 µM): 2.37%
- viability, T/C (second compound 3.16 µM, first compound 0.001 µM): 11.2%
- viability, T/C (second compound 3.16 µM, first compound 0.00316 µM): 2.11%
- viability, T/C [15]: 1.36%
- viability, T/C [16]: 3.15%
- viability, T/C [17]: 1.32%
- viability, T/C (second compound 10 µM, first compound 0.000316 µM): 0.19%
- viability, T/C (second compound 10 µM, first compound 0.001 µM): 0.31%
- viability, T/C (second compound 10 µM, first compound 0.00316 µM): 0.18%
- viability, T/C (second compound 10 µM, first compound 0.01 µM): 0.18%
- viability, T/C [18]: 0.23%
- viability, T/C [19]: 0.34%

Compound: CC1COCCN1c1cc(-c2ccnn2C)c2ccnc(-c3ccn[nH]3)c2n1 (stereo not given) + C=CC(=O)N1CCN(c2nc(OCC3CCCN3C)nc3c2CCN(c2cccc4cccc(C)c24)C3)CC1CC#N
- IC50 (curve of first compound, second compound 0.0316 µM): 1790 nM
- IC50 [1]: 909 nM
- IC50 [2]: 723 nM
- IC50 [3]: 298 nM
- IC50 [4]: 17 nM
- viability, T/C (second compound 0.0316 µM, first compound 0.01 µM): 102%
- viability, T/C (second compound 0.0316 µM, first compound 0.0316 µM): 77.8%
- viability, T/C (second compound 0.0316 µM, first compound 0.1 µM): 64.8%
- viability, T/C (second compound 0.0316 µM, first compound 0.316 µM): 58.8%
- viability, T/C (second compound 0.0316 µM, first compound 1 µM): 48.8%
- viability, T/C (second compound 0.0316 µM, first compound 3.16 µM): 49.3%
- viability, T/C [6]: 103%
- viability, T/C [7]: 83.7%
- viability, T/C [8]: 65.5%
- viability, T/C [20]: 54.5%
- viability, T/C [21]: 45.8%
- viability, T/C [22]: 51.2%
- viability, T/C [9]: 95%
- viability, T/C [10]: 74.6%
- viability, T/C [11]: 60.8%
- viability, T/C [23]: 54.6%
- viability, T/C [24]: 46.4%
- viability, T/C [25]: 47.8%
- viability, T/C [12]: 85%
- viability, T/C [13]: 76.3%
- viability, T/C [14]: 59.7%
- viability, T/C [26]: 51.5%
- viability, T/C [27]: 41.6%
- viability, T/C [28]: 42.4%
- viability, T/C [15]: 53.4%
- viability, T/C [16]: 46.5%
- viability, T/C [17]: 37.2%
- viability, T/C [29]: 33.5%
- viability, T/C [30]: 25.4%
- viability, T/C [31]: 23.4%

Compound: CC1(C)CCC(CN2CCN(c3ccc(C(=O)NS(=O)(=O)c4ccc(NCC5CCOCC5)c([N+](=O)[O-])c4)c(Oc4cnc5[nH]ccc5c4)c3)CC2)=C(c2ccc(Cl)cc2)C1
- viability, T/C (compound 0.0316 µM): 100% [middle of 5 runs]
- viability, T/C (compound 0.1 µM): 103% [middle of 5 runs]
- viability, T/C (compound 0.316 µM): 100% [middle of 5 runs]
- viability, T/C (compound 1 µM): 97.1% [middle of 5 runs]
- IC50 (curve of compound): 9.05 µM [middle of 5 runs]

Compound: COC(=O)c1ccc2c(C(=Nc3ccc(N(C)C(=O)CN4CCN(C)CC4)cc3)c3ccccc3)c(O)[nH]c2c1 + CNCc1ccccc1-c1csc(C(C)Nc2nc(C)nc3cc(OC)c(OC)cc23)c1
- IC50 [1]: 2550 nM
- IC50 [2]: 1860 nM
- IC50 [3]: 2170 nM
- IC50 [4]: < 31.6 nM
- IC50 [5]: < 31.6 nM
- viability, T/C [7]: 111%
- viability, T/C [8]: 107%
- viability, T/C [20]: 117%
- viability, T/C [21]: 110%
- viability, T/C [22]: 36.2%
- viability, T/C (second compound 0.1 µM, first compound 10 µM): 1.52%
- viability, T/C [10]: 108%
- viability, T/C [11]: 110%
- viability, T/C [23]: 107%
- viability, T/C [24]: 102%
- viability, T/C [25]: 6.06%
- viability, T/C (second compound 0.316 µM, first compound 10 µM): 0.58%
- viability, T/C [13]: 106%
- viability, T/C [14]: 115%
- viability, T/C [26]: 107%
- viability, T/C [27]: 96.7%
- viability, T/C [28]: 27.2%
- viability, T/C (second compound 1 µM, first compound 10 µM): 1.19%
- viability, T/C [16]: 1.59%
- viability, T/C [17]: 4.08%
- viability, T/C [29]: 1.18%
- viability, T/C [30]: 0.58%
- viability, T/C [31]: 1.26%
- viability, T/C (second compound 3.16 µM, first compound 10 µM): 0.34%
- viability, T/C [18]: 0.26%
- viability, T/C [19]: 0.2%
- viability, T/C (second compound 10 µM, first compound 0.316 µM): 0.15%
- viability, T/C (second compound 10 µM, first compound 1 µM): 0.33%
- viability, T/C (second compound 10 µM, first compound 3.16 µM): 0.38%
- viability, T/C (second compound 10 µM, first compound 10 µM): 0.48%

From PubChem BioAssay AID1963861 (Molecular Pharmacology Branch, DTP, NCI, 2024)
